Legend:
[1] = target: T1, A1-T458S/T459C (mutant ASCT1) (Homo sapiens, UniProt P43007, T458S/T459C); experiment: Two electrode voltage clamp, substrate-activated anion current in oocytes expressing A1-T458S/T459C; format: cell-based; details: for EC50: A1-T458S/T459C in oocytes, NO3−-containing buffer, current at +60 mV
T1 construct: expressed in transfected cells; host or cells: Xenopus laevis oocytes (cRNA injection)
T1 sequence (P43007 1-532 T458S/T459C): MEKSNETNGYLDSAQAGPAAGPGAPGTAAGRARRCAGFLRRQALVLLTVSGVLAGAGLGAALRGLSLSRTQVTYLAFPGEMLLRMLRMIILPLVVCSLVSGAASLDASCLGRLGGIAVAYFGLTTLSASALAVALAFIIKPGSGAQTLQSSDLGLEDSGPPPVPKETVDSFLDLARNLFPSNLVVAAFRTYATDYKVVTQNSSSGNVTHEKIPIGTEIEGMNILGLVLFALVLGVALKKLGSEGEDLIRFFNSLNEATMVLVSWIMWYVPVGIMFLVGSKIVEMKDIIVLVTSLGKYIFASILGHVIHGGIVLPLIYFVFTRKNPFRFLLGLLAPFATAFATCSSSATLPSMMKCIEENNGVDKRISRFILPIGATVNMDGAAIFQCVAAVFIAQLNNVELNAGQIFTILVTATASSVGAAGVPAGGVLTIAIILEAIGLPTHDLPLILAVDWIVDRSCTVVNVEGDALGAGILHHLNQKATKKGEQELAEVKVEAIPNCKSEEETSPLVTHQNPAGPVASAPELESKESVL
Procedure: All chemicals were obtained from Sigma unless otherwise stated. Stage V oocytes were harvested from female Xenopus laevis (frogs) which were obtained from Nasco (Fort Alkinson, USA). Frogs were anaesthetised with 6.5 mM tricaine neutralised with 7.14 mM sodium bicarbonate. After making an incision in the abdomen of the frog, ovarian sacs were removed and stored in OR-2 buffer (82.5 mM NaCl, 2 mM KCl, 1 mM MgCl2, 5 mM hemisodium HEPES, pH 7.5). This surgical procedure follows a protocol (#2016/970) approved by the University of Sydney Animal Ethics Committee under the Australian Code of Practice for the Care and Use of Animals for Scientific Purposes. To isolate oocytes, the ovarian sacs were cut into small sections before being digested by agitation with 2 mg per ml Collagenase A for 1–2 h. Following digestion, defoliculated oocytes were initially rinsed with OR-2, followed by frog Ringer’s solution (96 mM NaCl, 2 mM KCl, 1 mM MgCl2, 1.8 mM CaCl2, 5 mM hemisodium HEPES, pH 7.5). A total of 20 ng of transporter cRNA was injected into oocytes which were stored in frog Ringer’s solution supplemented with 0.1% gentamycin, 50 μg per ml tetracycline, 2.5 mM pyruvate and 0.5 mM theophylline at 16–18 °C.
After 2–4 days of microinjection, current recordings were made using the two electrode voltage clamp technique with a Geneclamp 500 amplifier (Axon Instruments, Foster City, CA) interfaced with a MacLab 2e chart recorder (ADI Instruments, Sydney, Australia) using the chart software, and a Digidata 1322A (Axon Instruments) controlled by an IBM-compatible computer using the pClamp software (version 10, Molecular Devices, Union City, CA). The current–voltage relationships for substrate elicited conductances were obtained by subjecting cells to 200 ms voltage pulses between −100 mV and + 60 mV in 10 mV steps. Current–voltage relationships were calculated by subtracting steady state current measurements in the absence of substrate from corresponding current measurements in the presence of substrate.
Recording solution for all experiments (except where otherwise stated) was normal frog Ringer’s solution (Cl^−-containing buffer) with complete NO3 ^− substitution for Cl^−. For Na^+ titrations, NMDG^+ was used as the substitute cation. The pH of recording solutions was adjusted using HNO3 and NaOH or KOH. Recordings were made with the bath grounded via a 3 M KCl/agar bridge connected to a 3 M KCl reservoir to minimise offset potentials. Cells were washed with Cl^−-containing buffer between substrate applications to ensure that NO3 loading of the cell was not significant. […]

GltPh-R397C = target: T2, GltPh-R397C (Pyrococcus horikoshii, UniProt O59010, R397C); experiment: biochemical; format: binding; details: for Apparent number of Na+ ions coupled to binding (n): GltPh-R397C, global fit of isotherms at 10–100 mM Na+, 25 °C
T2 construct: hexa-His (N, cleaved yes); made in house; host or cells: Escherichia coli Top10 (pBAD)
Procedure: Fluorescence-based binding assays were performed by titrating purified protein (50 μg per ml) in 20 mM HEPES/Tris, pH 7.4, 200 mM choline chloride, 0.4 mM n-dodecyl^−β-D-maltopyranoside, 200 nM styryl fluorescent dye RH421 (Invitrogen, Inc., Grand Island, NY) with NaCl, L-ser, L-cys or benzylcysteine at 25 °C[51]. The RH421 dye was excited at 532 nm, and the fluorescence was collected at 628 nm using a QuantaMaster (Photon International Technology, Inc., Edison, NJ). Fluorescence emissions were measured after at least 10 min equilibration to ensure a stabilised signal. The data were analysed using GraphPad Prism version 6.0 for Mac (GraphPad Software, La Jolla California USA). Fractional fluorescence changes were normalised to maximal fluorescence changes, then plotted as a function of ligand concentration and fitted to the Hill equation. All the experiments were performed at least in triplicate.
Analysis of ligand binding data. The voltage sensitive amphipathic dye RH421 reports on Na+ binding to purified GltPh protein in detergent3. RH421 was used to follow Na+ binding to GltPh‐R397C protein either alone or in reactions coupled to binding of amino acids. […]
Coupled ions and amino acid binding was probed by titrating amino acids to the GltPh‐R397C protein in the presence of 10 – 100 mM Na+ ions. The obtained isotherms were analyzed to estimate an apparent number of Na+ ions coupled to binding of the amino acids.
Raw data were first normalized by the initial fluorescence of RH421 and plotted as fraction of fluorescence change (Supplementary […]
total amount of dye and detergent in the assay buffer.
To take into account significant amino acid‐independent Na+ binding, the sets of binding isotherms obtained at variable Na+ concentrations were fitted globally to a simplified binding equation: […]
KD,a is the combined dissociation constant for coupled Na+ and ligand binding and n is the apparent number of coupled ions. Fraction of the protein bound to either Na+ ions alone or to the ions and the […]
Fraction of the protein already bound to Na+ ions before ligand addition is: […]
Fractional fluorescence change Y is fitted to an equation: […]
where Y0 and ∆Y are, respectively, baseline and the signal difference between fully bound and apo […]
KD,a and n were fitted globally for each ligand. Y0 and ∆Y were adjusted for each isotherm independently. […]
individual isotherm to a standard Hill equation, plotted the apparent dissociation constants as functions of Na+ concentrations and compared the values to those predicted using the parameters from the global fits (Supplementary Figure 8).

T2 sequence (O59010 whole entry R397C): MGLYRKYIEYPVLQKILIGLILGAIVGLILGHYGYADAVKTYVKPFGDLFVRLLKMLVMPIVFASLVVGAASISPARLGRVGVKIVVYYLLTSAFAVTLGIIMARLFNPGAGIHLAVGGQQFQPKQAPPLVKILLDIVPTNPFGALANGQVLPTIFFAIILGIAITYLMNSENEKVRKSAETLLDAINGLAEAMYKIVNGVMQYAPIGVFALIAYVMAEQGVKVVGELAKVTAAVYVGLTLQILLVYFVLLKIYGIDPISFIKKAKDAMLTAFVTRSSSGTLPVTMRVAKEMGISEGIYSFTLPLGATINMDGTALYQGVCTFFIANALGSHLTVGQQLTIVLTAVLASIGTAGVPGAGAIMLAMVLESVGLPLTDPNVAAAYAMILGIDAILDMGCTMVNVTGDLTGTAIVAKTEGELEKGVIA

| Compound | EC50 [1] | Kd (GltPh-R397C) | Apparent number of Na+ ions coupled to binding (n) (GltPh-R397C) | GPNA % inhibition of L-serine activated current ([1]; A1-T458S/T459C, GPNA co-applied with EC50 of L-serine, 300 µM GPNA / 1 mM GPNA (Table 1 footnote)) | IC50 ([1]; A1-T458S/T459C, co-applied with EC50 of L-serine, read-out: IC50 for inhibition of L-serine activated current) |
| --- | --- | --- | --- | --- | --- |
| NC(=O)CC[C@H](N)C(=O)O [L-glutamine] | 90 ± 10 µM | 1800 ± 400 µM | 1.1 ± 0.04 | – | – |
| N[C@@H](CS)C(=O)O [L-cysteine] | – | 31 ± 3 µM | 1.5 ± 0.04 | – | – |
| N[C@@H](CCC(=O)Nc1ccc([N+](=O)[O-])cc1)C(=O)O [GPNA, glutamyl-p-nitroanilide] | – | – | – | 41 ± 4% | 600 ± 200 µM |
| N[C@@H](CO)C(=O)O [L-serine] | 45 ± 5 µM | 9 ± 1 µM | 1.7 ± 0.04 | – | – |
